15 substances from patent publication US9957311B2, “Surface-binding peptide” (TIKOMED AB, priority 2013, dated 2018) can be followed below.

Entries after “also recorded” stand apart in the source; their conditions may differ.

A short description of experiment [1]: Binding of fluorescent IP-10 short peptides to titanium foils, fluorescence microscope (Experiment 3). As to conditions: FITC-labeled peptides 50 μg/ml, 8×8 mm Ti foils, 3 h room temperature, FIG. 7. The protocol: 5 mg of the different peptides (Table 3), which were labeled with fluorescein isothiocyanate, were dissolved with 1 ml of water with molecular biology degree (Sigma-Aldrich, St. Louis, Mo., USA). Working solutions of the different peptides were diluted further with PBS (PAA Laboratories GmbH, Pasching, Austria) to 50 μg/ml. Briefly, 500 μl of peptide solution was incubated with 8×8 mm Ti foils (Sigma Aldrich, thickness 0.127 mm, 99.7%, cut into 8×8 mm^2 samples) in an orbital shaker (IKA Vibrax VXR basic, Staufen, Germany) for 3 h at room temperature. Experiments were run in duplicate.
Ti foils were rinsed twice with PBS to remove unbound labeled peptides. Remaining liquid was allowed to dry and samples were put on microscope slides. […] Two images of each surface were taken.

Experiment [2] can be described thus: Binding of IP-10 derived short peptides to TiO2 P25 particles, absorbance at 206 nm (Experiment 2). As to conditions: Experiment 2, 50 μg/ml peptide, 25 mg TiO2, 3 h room temperature. The protocol:
5 mg of eleven peptides (Table 2) were dissolved with 1 ml of water for molecular biology (Sigma-Aldrich, St. Louis, Mo., USA). Working solutions of the different peptides were diluted further with phosphate buffered saline (PBS) (PAA Laboratories GmbH, Pasching, Austria) to 50 μg/ml. 25 mg of TiO2 (P25 from Degussa and P90 from Sigma-Aldrich) were used for the studies. Briefly, 250 μl of peptide solution was incubated with 25 mg of TiO2 powder with different particle size (P25 and P90) in an orbital shaker (IKA Vibrax VXR basic, Staufen, Germany) for 3 h at room temperature. Different controls were used and processed in parallel with the other samples: solutions with peptides alone, PBS alone and P25/P90 in PBS. After this time, all the samples were centrifuged at 13.000×g for 3 min at 20° C. 100 μl of the supernatant solution was carefully collected and placed in a 96-well UV plate and read with PowerWave™ microplate spectrophotometer from BioTek. Absorbances at 206 nm and also spectrum curves for each sample were collected and analysed.

The test system of the next experiment is integrin β3. Kind of experiment: Immunocytochemistry of integrin β3 in MC3T3-E1 cells on peptide-coated Ti. Format: cell-based. As to conditions: FIG. 12; for integrin β3 staining: after 72 h of culture. As for the experimental part: (§1) Under aseptic conditions, implants were immersed in a 3:7 (v/v) HNO3-DI water solution for 30 min at room temperature. Then, they were rinsed with milliQ water and placed in a covered milliQ water bath for 24 h. Implants were dried with N2 and were placed in a 96-well plates. Then, 200 μl of 50 μg/ml peptide solutions in PBS were added to each implant. Adsorption took place for 24 h at 37° C. in a humidified atmosphere. After 24 h peptide solutions were collected and surfaces were washed with 200 μl of PBS and air-dried in order to perform in vitro experiments.
MC3T3-E1 cells were routinely cultured at 37° C. in a humidified atmosphere of 5% CO2, and maintained in α-MEM supplemented with 10% FBS and antibiotics (50 IU penicillin/ml and 50 μg streptomycin/ml). 7.0×10^3 cells were seeded on the peptide-coated implants. Trypan blue stain was used to determine total and viable cell number. The same number of cells was cultured in parallel in plastic culture plates in the experiment. All experiments were performed after 4 passages of the MC3T3-E1 cells.
Cells grown for 24 and 72 h on the surfaces were fixed for 15 min with 4% formaldehyde in PBS at room temperature. Cells were incubated with 0.1% Triton X-100 for 5 min, 1% bovine serum albumin for 30 min and then with anti-integrin beta-3 antibody for 1 h at 1:50 dilution in PBS. Then, a Cy3-conjugated goat anti-rabbit IgG was used as secondary antibody for 1.5 h at 1:200 dilution in PBS. For actin cytoskeleton visualization, cells were stained with phalloidin-FITC 5 μg/mL in PBS for 30 min. Cells were washed with PBS and coin-shaped samples were placed on slides. Finally, a drop of Fluoroshield with DAPI was added and cover glasses were mounted on the samples. Two samples of each group were used to perform the experiment and two images of each sample were taken with the confocal microscope (Leica DMI 4000B equipped with Leica TCS SPE laser system).

A short description of experiment [3]: Binding of IP-10 derived short peptides to nanoparticles, absorbance at 206 nm (Experiment 7). As to conditions: 50 μg/ml peptide, 3 h room temperature, FIG. 14; for binding to TiO2 nanoparticles: 25 mg TiO2 21 nm; for binding to SiO2 particles: 25 mg SiO2 10-20 nm. As for the experimental part:
Lyophilized peptides were dissolved with water (Sigma, molecular biology degree) to a concentration of 5 mg/ml (Table 6). Working solutions of the different peptides were diluted further with PBS (PAA laboratories) to 50 μg/ml. 25 mg of TiO2 (Titanium(IV) oxide nanopowder, 21 nm particle size, catalog number 718467, Sigma-Aldrich), SiO2 (Silicon dioxide nanopowder, 10-20 nm particle size, catalog number […], Sigma-aldrich), MgO (Magnesium oxide nanopowder, <50 nm particle size, catalog number 549649, Sigma-Aldrich) were used for the studies. Briefly, 250 μl of peptide solution containing 50 μg/ml was incubated with 25 mg of the materials in an orbital shaker for 3 h at room temperature. Different controls were used and processed in parallel with the other samples: solutions with peptides alone, PBS alone and TiO2/SiO2/MgO in PBS. After this time, all the samples were centrifuged at 13.000×g for 3 min at 20° C. 100 μl of the supernatant solution was carefully collected and placed in a 96-well UV plate and read with PowerWave™ microplate spectrophotometer from BioTek. Absorbances at 206 nm and also spectrum curves for each sample were collected and analyzed.

A short description of experiment [4]: Binding of IP-10 derived peptides to TiO2 P90, absorbance at 206 nm (Experiment 1). As to conditions: 50 μg/mL peptide in PBS, 20 mg TiO2 P90, 3 h room temperature, FIG. 3. The protocol:
This experiment was conducted to find the exact region of the IP-10 molecule that binds to titanium. In this experiment the effect of TiO2 (diameter ˜14 nm, product number P 90, Aerosil Evonic Ind.) on peptides synthesized from the IP-10 molecule by absorbance measurements using a Spektro U29-10 Hitachi spectrophotometer.
Seventeen different peptides having sequences of various portion of IP-10 were dissolved in water and thereafter diluted to working solution (50 μg/mL) in phosphate buffered saline (PBS), see Table 1 and FIG. 2.
The absorbance of the peptides bound to TiO2 surfaces P90 from Sigma-Aldrich) were measured at 206 nm using a Spektro U29-10 Hitachi spectrophotometer. Briefly, 20 mg TiO2 (P90) was incubated with 250 μl of peptide solution. After 3 h incubation on a shaking device in room temperature, with vortexing every hour, the samples were centrifuged (13 000×g, 3 min) and the supernatant was collected. As a negative control, PBS alone was used and positive control was peptide solution alone. Every sample was made in double and the experiments were repeated.

Another experiment relates to MC3T3-E1 cells. Kind of experiment: DNA quantification (cell number) of cells on peptide-coated Ti. In kind it is cell-based. As to conditions: 48 h culture on Ti coated with 50 μg/ml peptide, FIG. 9. The protocol:
as §1, with “Absorption” for “Adsorption”, “cell” for “in vitro”, “experiments. The surfaces were denoted Ti (uncoated Ti), P1 (Ti coated with IP10-RGD), P2 (Ti coated with IP10mut-RGD), P3 (Ti coated with IP10-RGDmut) and P4 (Ti coated with IP10mut-RGDmu).” for “experiments.”
MC3T3-E1 cells were routinely cultured at 37° C. in a humidified atmosphere of 5% CO2, and maintained in α-minimum essential medium (α-MEM) supplemented with 10% fetal bovine serum (FBS) and antibiotics (50 IU penicillin/ml and 50 μg streptomycin/ml). 7.0×10^3 cells were seeded on the peptide-coated implants. Trypan blue stain was used to determine total and viable cell number. The same number of cells was cultured in parallel in plastic culture plates in the experiment. All experiments were performed after 15 passages of the MC3T3-E1 cells.
Culture media was removed from wells and plates were frozen at −80° C. until the experiment was carried out. At the day of analysis, 100 μl of distilled water were added to each well. Plates were incubated for 1 hour at room temperature. Again, plates were frozen at −80° C. to lysate cells. Plates were thawed until reaching room temperature and 100 μl of Hoechst 33258 at 20 μg/ml in THE buffer were added. Then, 200 μl aliquots were transferred to 96-well fluorescence plates and a spectrophotometer was set to record fluorescence. Relative fluorescence units were correlated with the cell number using a linear standard curve.

On to “TMKKKPESCF (IP-10 derived peptide linked to randomized tag sequence) [IP10a]”, for which the “signal from the fluorescent peptides bound to Ti” value in experiment [1] was “lower than for IP10 but higher than for IP10r”.
Turning to ATMKK (listed as Homo sapiens) [IP1], the “binding to TiO2 particles (in words)” value in experiment [2] is “very strong binding”.
Turning to “MKKKGEGGGGGGGGRGES (IP-10 derived peptide connected to mutated RGD motif via poly-G-linker) [Peptide P3]”, in the experiment with integrin β3 (after 24 h of culture), the “integrin β3 signal” value is reported as “showed integrin β3 signal”. Further, the “integrin β3 staining” value in the experiment on integrin β3 is listed as “no clear staining; also recorded: disappeared”.
Take KKKGE (listed as Homo sapiens) [IP4]: the “binding to TiO2 nanoparticles” value in experiment [3] is recorded as “higher binding”. Besides, the “binding to TiO2 particles (in words)” value in experiment [2] is reported as “very strong binding”.
For MKKKG (listed as Homo sapiens) [IP3] the same measures were “higher binding” and “very strong binding”.
For “MTTTGEGGGGGGGGRGDS (Mutated IP-10 derived peptide connected to RGD motif via poly-G-linker) [Peptide P2]”, the “integrin β3 staining” value in the experiment on integrin β3 is “no clear staining”.
As to RCLNP (listed as Homo sapiens) [IPF], in experiment [3], the “binding to SiO2 particles” value is reported as “binding” and the “binding to TiO2 nanoparticles” value was “binding”.
For the substance “IKNLLKAVSKERSKRSP (listed as Homo sapiens) [Peptide 6]”, in experiment [4], the “binding to TiO2 P90 (percentage of peptides absorbed, ranking)” value is “bound most”.
For the substance KRCLN (listed as Homo sapiens) [IPE], in experiment [3], the “binding to SiO2 particles” value is “binding” and the “binding to TiO2 nanoparticles” value is “binding”.
Take “MTTTGEGGGGGGGGRGES (Mutated IP-10 derived peptide connected to mutated RGD motif via poly-G-linker) [Peptide P4]”: in the experiment with integrin β3, the “integrin β3 staining” value was “no clear staining”. Also, the “number of cells (DNA quantification)” value in the experiment with MC3T3-E1 cells was “lowest”; with MC3T3-E1 cells (listed as double mutant peptide sequence), “lastly”.
For PESCF (Randomized tag sequence) [IP10r], the “signal from the fluorescent peptides bound to Ti” value in experiment [1] was “lowest”.
“IIATMKKKGEKRCLNPESKA (listed as Homo sapiens) [Peptide 5]”: the “binding to TiO2 P90 (percentage of peptides absorbed, ranking)” value in experiment [4] is “bound most”.
With TMKKK (listed as Homo sapiens) [IP2], the “binding to TiO2 nanoparticles” value in experiment [3] is “higher binding”. Moreover, the “binding to TiO2 particles (in words)” value in experiment [2] is “very strong binding; also recorded: best binding sequence”.
In the case of KKGEI (IP-10 derived peptide) [IP5], in experiment [2], the “binding to TiO2 particles (in words)” value is listed as “very strong binding”.
For “FCSEPKKKMT (IP-10 derived peptide linked to randomized tag sequence) [IP10b]”, the “signal from the fluorescent peptides bound to Ti” value in experiment [1] is given as “lower than for IP10 but higher than for IP10r”.
